Structures can show the parent of a compound that is named as a salt.

TrkA, sequence (P04629 440-796 limits assumed): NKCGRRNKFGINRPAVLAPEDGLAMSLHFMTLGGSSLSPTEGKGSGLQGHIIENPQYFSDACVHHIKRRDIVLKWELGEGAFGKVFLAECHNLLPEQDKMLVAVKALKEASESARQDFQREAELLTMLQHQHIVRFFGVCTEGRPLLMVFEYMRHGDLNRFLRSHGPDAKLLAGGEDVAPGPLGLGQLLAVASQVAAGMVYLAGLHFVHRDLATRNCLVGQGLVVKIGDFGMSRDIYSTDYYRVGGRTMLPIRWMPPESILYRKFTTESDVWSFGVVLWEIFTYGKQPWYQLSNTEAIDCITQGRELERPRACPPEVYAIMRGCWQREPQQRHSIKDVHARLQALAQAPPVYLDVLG

For the assay, the target named is TrkA (Homo sapiens, UniProt P04629). As to the kind of experiment: TrkA LanthaScreen Eu Kinase Binding Assay. Set-up: 6HIS tagged cytoplasmic domain from Invitrogen, Catalog No. PV3144; purchased Invitrogen PV3144. The conditions noted are these: averaged IC50; TR-FRET binding assay; read-out: TrkA Enzyme IC50. On the procedure:
TrkA binding activity was determined in a TrkA LanthaScreen™ Eu Kinase Binding Assay. 5 nM His-tagged recombinant human TrkA (6HIS tagged cytoplasmic domain from Invitrogen, Catalog No. PV3144) was incubated with 4 nM Alexa-Fluor® Tracer 236 (Invitrogen Cat. No. PV5592), 2 nM biotinylated anti-His (Invitrogen Cat. No. PV6090), and 2 nM europium-labeled Streptavidin (Invitrogen Cat. No. PV5899), in buffer (25 mM MOPS, pH 7.5, 5 mM MgCl2, 0.005% Triton X-100). Three fold serial dilutions of compounds of the invention in DMSO were added to a final percentage of 2% DMSO. After 60-minute incubation at 22° C., the reaction was measured using the EnVision mutlimode plate reader (PerkinElmer) via TR-FRET dual wavelength detection at […]. The percent of control was calculated using a ratiometric emission factor. The IC50 values were determined by fitting a four parameter model to the percent of control data.
Table A provides averaged IC50 values for compounds of the invention when tested in the assay of Example A, where A represents an averaged IC50 value<100 nM; B represents an averaged IC50 value from 100 to 1,000 nM; and C represents an averaged IC50 value from 1,000 to 10,000 nM.
As a reminder, the IC50 is the midpoint of a concentration-inhibition curve. As to `COCCCc1cc(Cl)c(Cl)cc1NC(=O)Nc1c(C)c(C(=O)NC2CCOCC2)nn1-c1ccccc1` [Example 36, 5-(3-(4,5-dichloro-2-(3-methoxypropyl)phenyl)ureido)-4-methyl-1-phenyl-N-(tetrahydro-2H-pyran-4-yl)-1H-pyrazole-3-carboxamide], the IC50 is less than 100 nM.
Under `COCC(F)(F)Cc1cc(Cl)c(Cl)cc1NC(=O)Nc1c(C)c(-c2ccc(=O)n(C)c2)nn1-c1ccccc1` [Example 20, 1-(4,5-dichloro-2-(2,2-difluoro-3-methoxypropyl)phenyl)-3-(4-methyl-3-(1-methyl-6-oxo-1,6-dihydropyridin-3-yl)-1-phenyl-1H-pyrazol-5-yl)urea] stands less than 100 nM; under `COCCCc1cc(Cl)c(Cl)cc1NC(=O)Nc1c(C)c(OCC2CCNCC2)nn1-c1ccccc1` [Example 41, 1-(4,5-dichloro-2-(3-methoxypropyl)phenyl)-3-(4-methyl-1-phenyl-3-(piperidin-4-ylmethoxy)-1H-pyrazol-5-yl)urea hydrochloride], less than 100 nM.
As for `COCCOc1cc(Cl)c(F)cc1NC(=O)Nc1c(C)c(-c2cnn(C)c2)nn1-c1ccccc1` [Example 5, 1-(4-chloro-5-fluoro-2-(2-methoxyethoxy)phenyl)-3-(1′,4-dimethyl-1-phenyl-1H,1′H-[3,4′-bipyrazol]-5-yl)urea], the IC50 was less than 100 nM.
Take `COCCOc1cc(Cl)ccc1NC(=O)Nc1c(C)c(-c2cnn(C)c2)nn1-c1ccccc1` [Example 11, 1-(4-chloro-2-(2-methoxyethoxy)phenyl)-3-(1′,4-dimethyl-1-phenyl-1H,1′H-[3,4′-bipyrazol]-5-yl)urea]: the IC50 was 100 to 1000 nM.
For `COCCCc1cc(F)c(C(F)(F)F)cc1NC(=O)Nc1c(C)c(-c2ccc(=O)n(C)c2)nn1-c1ccccc1` [Example 17, 1-(4-fluoro-2-(3-methoxypropyl)-5-(trifluoromethyl)phenyl)-3-(4-methyl-3-(1-methyl-6-oxo-1,6-dihydropyridin-3-yl)-1-phenyl-1H-pyrazol-5-yl)urea], the IC50 was less than 100 nM.
The result for `COCCCc1cc(Cl)c(Cl)cc1NC(=O)Nc1c(C)c(OCCN2CCN(C)CC2)nn1-c1ccccc1` [Example 28, 1-(4,5-dichloro-2-(3-methoxypropyl)phenyl)-3-(4-methyl-3-(2-(4-methylpiperazin-1-yl)ethoxy)-1-phenyl-1H-pyrazol-5-yl)urea] reads less than 100 nM; that for `COCCOc1cc(C(F)(F)F)ccc1NC(=O)Nc1c(C)c(-c2cnn(C)c2)nn1-c1ccccc1` [Example 10, 1-(1′,4-dimethyl-1-phenyl-1H,1′H-[3,4′-bipyrazol]-5-yl)-3-(2-(2-methoxyethoxy)-4-(trifluoromethyl)phenyl)urea], less than 100 nM.
For the compound `COCCCc1cc(Cl)c(Cl)cc1NC(=O)Nc1c(C)c(OCCC2CCN(C)CC2)nn1-c1ccccc1` [Example 29, 1-(4,5-dichloro-2-(3-methoxypropyl)phenyl)-3-(4-methyl-3-(2-(1-methylpiperidin-4-yl)ethoxy)-1-phenyl-1H-pyrazol-5-yl)urea], the IC50 is less than 100 nM.
Consider `COCCCc1cc(Cl)c(Cl)cc1NC(=O)Nc1c(C)c(OC[C@@H]2CCCN(C)C2)nn1-c1ccccc1` [Example 35, (R)-1-(4,5-dichloro-2-(3-methoxypropyl)phenyl)-3-(4-methyl-3-((1-methylpiperidin-3-yl)methoxy)-1-phenyl-1H-pyrazol-5-yl)urea], for which the IC50 is less than 100 nM.
The result for `COCCCc1cc(Cl)c(Cl)cc1NC(=O)Nc1c(C)c(OCC2CCCN2)nn1-c1ccccc1` (stereo not shown) [Example 43, 1-(4,5-dichloro-2-(3-methoxypropyl)phenyl)-3-(4-methyl-1-phenyl-3-(pyrrolidin-2-ylmethoxy)-1H-pyrazol-5-yl)urea hydrochloride] reads less than 100 nM; that for `COCCCc1cc(Cl)c(Cl)cc1NC(=O)Nc1c(C)c(OC2CCN(C)CC2)nn1-c1ccccc1` [Example 30, 1-(4,5-dichloro-2-(3-methoxypropyl)phenyl)-3-(4-methyl-3-((1-methylpiperidin-4-yl)oxy)-1-phenyl-1H-pyrazol-5-yl)urea], less than 100 nM; that for `COCCCc1cc(Cl)c(Cl)cc1NC(=O)Nc1c(C)c(OCC2CCN(C)CC2)nn1-c1ccccc1` [Example 24], less than 100 nM.
Under `COCCCc1cc(Cl)c(Cl)cc1NC(=O)Nc1c(C)c(-c2ccc(=O)n(C)c2)nn1-c1ccccc1` [Example 13, 1-(4,5-dichloro-2-(3-methoxypropyl)phenyl)-3-(4-methyl-3-(1-methyl-6-oxo-1,6-dihydropyridin-3-yl)-1-phenyl-1H-pyrazol-5-yl)urea] stands less than 100 nM; under `COCCCc1ccc(C(F)(F)F)cc1NC(=O)Nc1c(C)c(-c2ccc(=O)n(C)c2)nn1-c1ccccc1` [Example 25, 1-(2-(3-methoxypropyl)-5-(trifluoromethyl)phenyl)-3-(4-methyl-3-(1-methyl-6-oxo-1,6-dihydropyridin-3-yl)-1-phenyl-1H-pyrazol-5-yl)urea], less than 100 nM; under `COCCCc1cc(Cl)c(Cl)cc1NC(=O)Nc1c(C)c(OCCC2CCNCC2)nn1-c1ccccc1` [Example 40, 1-(4,5-dichloro-2-(3-methoxypropyl)phenyl)-3-(4-methyl-1-phenyl-3-(2-(piperidin-4-yl)ethoxy)-1H-pyrazol-5-yl)urea hydrochloride], less than 100 nM.
As for `COCCCc1cc(Cl)c(Cl)cc1NC(=O)Nc1c(C)c(OC[C@H](O)CO)nn1-c1ccccc1` [Example 21, (R)-1-(4,5-dichloro-2-(3-methoxypropyl)phenyl)-3-(3-(2,3-dihydroxypropoxy)-4-methyl-1-phenyl-1H-pyrazol-5-yl)urea], the IC50 was less than 100 nM.
Take `COCCCc1cc(Cl)c(Cl)cc1NC(=O)Nc1c(C)c(OC2CCNCC2)nn1-c1ccccc1` [Example 42, 1-(4,5-dichloro-2-(3-methoxypropyl)phenyl)-3-(4-methyl-1-phenyl-3-(piperidin-4-yloxy)-1H-pyrazol-5-yl)urea hydrochloride]: the IC50 is less than 100 nM.
The result for `COCCCc1cc(Cl)c(Cl)cc1NC(=O)Nc1c(C)c(OC[C@H]2CCCN(C)C2)nn1-c1ccccc1` [Example 34, (S)-1-(4,5-dichloro-2-(3-methoxypropyl)phenyl)-3-(4-methyl-3-((1-methylpiperidin-3-yl)methoxy)-1-phenyl-1H-pyrazol-5-yl)urea] reads less than 100 nM; that for `CNC(=O)c1nn(-c2ccccc2)c(NC(=O)Nc2cc(Cl)c(Cl)cc2CCCOC)c1C` [Example 16, 5-(3-(4,5-dichloro-2-(3-methoxypropyl)phenyl)ureido)-N,4-dimethyl-1-phenyl-1H-pyrazole-3-carboxamide], less than 100 nM; that for `COCCCc1cc(Cl)c(Cl)cc1NC(=O)Nc1c(C)c(OC[C@@H]2CN(C)CCO2)nn1-c1ccccc1` [Example 31, (S)-1-(4,5-dichloro-2-(3-methoxypropyl)phenyl)-3-(4-methyl-3-((4-methylmorpholin-2-yl)methoxy)-1-phenyl-1H-pyrazol-5-yl)urea], less than 100 nM.
Take `COCCOc1cc(Cl)c(Cl)cc1NC(=O)Nc1c(C)c(-c2ccc(=O)n(C)c2)nn1-c1ccccc1` [Example 8, 1-(4,5-dichloro-2-(2-methoxyethoxy)phenyl)-3-(4-methyl-3-(1-methyl-6-oxo-1,6-dihydropyridin-3-yl)-1-phenyl-1H-pyrazol-5-yl)urea]: the IC50 is less than 100 nM.
On to `COCCCc1cc(F)c(C(F)(F)F)cc1NC(=O)Nc1c(C)c(OC[C@H](O)CO)nn1-c1ccccc1` [Example 22, (R)-1-(3-(2,3-dihydroxypropoxy)-4-methyl-1-phenyl-1H-pyrazol-5-yl)-3-(4-fluoro-2-(3-methoxypropyl)-5-(trifluoromethyl)phenyl)urea], for which the IC50 is less than 100 nM.
Under `COCCCc1cc(Cl)c(Cl)cc1NC(=O)Nc1c(C)c(OC[C@H]2CCCNC2)nn1-c1ccccc1` [Example 46, (S)-1-(4,5-dichloro-2-(3-methoxypropyl)phenyl)-3-(4-methyl-1-phenyl-3-(piperidin-3-ylmethoxy)-1H-pyrazol-5-yl)urea hydrochloride] stands less than 100 nM; under `COCCCc1cc(Cl)c(Cl)cc1NC(=O)Nc1c(C)c(OC[C@H]2CNCCO2)nn1-c1ccccc1` [Example 44, (R)-1-(4,5-dichloro-2-(3-methoxypropyl)phenyl)-3-(4-methyl-3-(morpholin-2-ylmethoxy)-1-phenyl-1H-pyrazol-5-yl)urea hydrochloride], less than 100 nM.
Under `CNC(=O)c1nn(-c2ccccc2)c(NC(=O)Nc2cc(C(F)(F)F)ccc2CCCOC)c1C` [Example 26, 5-(3-(2-(3-methoxypropyl)-5-(trifluoromethyl)phenyl)ureido)-N,4-dimethyl-1-phenyl-1H-pyrazole-3-carboxamide] stands less than 100 nM; under `COCCOc1cc(Cl)c(Cl)cc1NC(=O)Nc1c(C)c(-c2cnn(C)c2)nn1-c1ccccc1` [Example 3, 1-(4,5-dichloro-2-(2-methoxyethoxy)phenyl)-3-(1′,4-dimethyl-1-phenyl-1H,1′H-[3,4′-bipyrazol]-5-yl)urea], less than 100 nM.
For the compound `COCCCc1ccc(Cl)cc1NC(=O)Nc1c(C)c(-c2cnn(C)c2)nn1-c1ccccc1` [Example 9, 1-(5-chloro-2-(3-methoxypropyl)phenyl)-3-(1′,4-dimethyl-1-phenyl-1H,1′H-[3,4′-bipyrazol]-5-yl)urea], the IC50 is less than 100 nM.
